The text below walks through data of patent US11939617B2, “Functionally modified polypeptides and radiobiosynthesis” (Ikaria Inc., priority 2016, dated 2024).

For one data set, the target named is HSA (Homo sapiens, UniProt P02768). Put plainly: chromatographic assay of HSA binding. To be noted: for Kd: chromatographic HSA binding assay (Hage). From the text:
To assess albumin binding, any assay designed to measure albumin binding can be used. Chromatographic binding assays are especially useful, such as that described by Hage, D S, et al. J (Chromatogr B Biomed Sci Appl. 2000, 739:39-54). Alternatively or in conjunction, binding affinity to albumin can be determined by using surface plasmon resonance. In one method, a BIAcore 200 device (BIAcore Inc.; Piscataway, NJ) is used in combination with a procedure by Lacy, S E, et al. (MAbs, 2015. 7:605-19) as modified herein. Briefly, human and mouse albumin are captured on a CM5 chip using amine coupling at 5000 resonance units. The candidate polypeptides are injected at various concentrations (e.g., 0, 0.625, 1.25, 5, and 10 μM) at a controlled flow rate (e.g., 20 μl/min). The bound peptides are allowed to dissociate for a period of time (e.g., 5 min) before matrix regeneration using 10 mM glycine, pH 3. The signal from an injection passing over an uncoupled cell is subtracted from that of an immobilized cell to generate sensorgrams of the amount of polypeptide bound as a function of time. BIAcore kinetic evaluation software (version 3.1) can be used to determine KD from the association and dissociation rates using a one-to-one binding model. Alternatively or in conjunction, affinity to albumin can be determined using a direct assay, such as described by Nguyen, A, et al. (Protein Eng Des Sel. 2006, 19:291-7). In this method, albumin is immobilized onto high protein-binding capacity polystyrene 96 well plates at a predetermined concentration, such as 2 mg/ml, for a period of time (e.g., overnight) at 4° C. Non-specific binding sites are blocked with binding buffer, and radio-labelled candidate polypeptides are applied to the plates for a period of time, such as 30 minutes, at 25° C. Unbound candidate polypeptides are washed away, and bound candidate polypeptides detected using a radioactivity plate reader.
The two non-natural amino acids (nnAAs 1 and 2; FIG. 1) were synthesized from the corresponding NHS-esters by standard conjugation chemistry (FIG. 1). […]

The conditions of data set [1]: daily subcutaneous injection, 70-100 mg, 1-2 mg/kg; cited from earlier work.
Data set [2] relates to amber nonsense codon in GFPUV-149UAG, PylRS mutant/tRNACUA^Pyl. Put plainly: amber suppression in GFP by PylRS mutant in E. coli, fluorescence plate reader. It counts as cell-based. Conditions: medium with 1 mM nnAA versus control LB medium, best hit from the library. From the text:
Since many PylRS mutants have broad substrate specificity, we first screened only a small library of 22 previously evolved PylRS mutants for their ability to incorporate 1 and 2 into green fluorescence protein (GFP) in E coli. The screening was based on the suppression of an amber nonsense codon at a permissive site in a GFP-encoding gene. Briefly, a plasmid, pLei-GFPUV-N149UAG, which contains GFPUV-149UAG and a copy of a tRNACUA^Pyl, was co-transformed into E. coli GeneHogs strain with a plasmid containing a variant of PylRS mutant. Protein expression was carried out in control LB medium and in medium supplemented with 1 mM 1 or 2. After induction of GFP expression and cultivation (12 h), cells were collected, washed, and analyzed using a fluorescence plate reader.

HSA, sequence (P02768 25-609): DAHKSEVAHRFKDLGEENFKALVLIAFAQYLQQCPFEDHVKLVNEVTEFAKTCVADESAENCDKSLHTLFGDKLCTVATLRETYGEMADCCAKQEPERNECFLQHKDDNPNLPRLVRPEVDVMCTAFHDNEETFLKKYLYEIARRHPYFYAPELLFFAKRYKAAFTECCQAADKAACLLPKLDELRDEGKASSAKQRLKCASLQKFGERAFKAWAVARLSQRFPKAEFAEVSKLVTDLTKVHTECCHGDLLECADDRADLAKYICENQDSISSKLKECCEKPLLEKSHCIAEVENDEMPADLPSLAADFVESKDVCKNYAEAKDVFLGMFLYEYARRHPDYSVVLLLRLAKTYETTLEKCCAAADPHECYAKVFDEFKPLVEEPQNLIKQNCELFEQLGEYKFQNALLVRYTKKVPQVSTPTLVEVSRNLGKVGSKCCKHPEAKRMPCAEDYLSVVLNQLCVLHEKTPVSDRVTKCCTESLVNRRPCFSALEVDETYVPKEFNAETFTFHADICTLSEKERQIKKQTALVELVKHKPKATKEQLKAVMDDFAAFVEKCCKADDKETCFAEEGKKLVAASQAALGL

The term Kd denotes the concentration at which binding is half-saturated. In the case of `N[C@@H](CCCCNC(=O)CCCc1ccc(I)cc1)C(=O)O` [compound 1], the Kd on HSA is 7 µM. Regarding “anakinra: 17 kD therapeutic protein currently prescribed for the treatment of rheumatoid arthritis”, the “time of peak serum concentration after injection” value in data set [1] is roughly 6 h. As to `N[C@@H](CCCCNC(=O)CCc1ccc(I)cc1)C(=O)O` [nnAA 2, Nε-(3-(4-iodophenyl)propanoyl)lysine], the “full-length GFPUV production (fluorescence)” value in data set [2] is recorded as “significantly more full-length GFPUV proteins were produced”. Moreover, on HSA, the Kd came to 204 µM. Further, the albumin binding entry at HSA (statement in words) is “binds albumin poorly”.
